For 79 compounds, RP-LC retention time results are on record in the METLIN SMRT retention time set (Domingo-Almenara et al. 2019).

The structures appear in SMILES notation.

This data set can be described thus: gradient 5% acetonitrile 3 min, to 50% in 2 min, to 85% in 15 min, held 3 min, 100 µL/min. Particulars: column: Zorbax Extend-C18 2.1 x 50 mm; eluents: water / acetonitrile, 0.1% formic acid. The procedure, abridged: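 Values are retention times taken from adduct peaks that software picked and an analyst inspected. The pure standards were run as mixtures of ~100 molecules on HPLC linked to a quadrupole time-of-flight mass spectrometer, in positive and negative ionization mode. A Zorbax Extend-C18 column (2.1 × 50 mm, 1.8 μm) was used at 100 μL/min with water and acetonitrile, each including 0.1% formic acid.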
Take `COCCn1c(-c2ccccc2)cnc1SCC(=O)Nc1ccccc1`: the RP-LC retention time came to 669 s.

`CCCN(CC1CCOC1)C(=O)Nc1cc(Cl)ccc1C` (centres undefined) came in with an RP-LC retention time of 901 s. The figure for `O=S(=O)(c1ccc2nncn2c1)N(Cc1ccc(F)cc1)c1cccc(F)c1` is 861 s. The figure for `COc1ccc(NC(=O)C2CCN(c3cnc4nc(C)c(C)nc4c3)CC2)cc1F` is 718 s. The same measure for `Cc1cccc(-c2noc(Cc3nc(-c4ccc(F)cc4)cs3)n2)c1`: 1260 s. Regarding `COc1ccc(F)cc1S(=O)(=O)N1CCC(C(=O)Nc2cc(C)on2)CC1`, the RP-LC retention time was 745 s.

With `COc1ccc(-c2ncc3c(n2)CCN(C(=O)c2ccc(F)cc2Cl)C3)cc1`, the RP-LC retention time was 971 s. The same measure for `Cc1ccc(S(=O)(=O)N2CCC(C3CCNC3)CC2)cc1F` (centres undefined): 651 s. The figure for `CCN1CCN(C(=O)C2CCCN(c3nnc4ccc(C(F)(F)F)cn34)C2)CC1` (centres undefined) is 567 s; for `Cc1ccc(N2CC(c3noc(-c4ccc(C)c(F)c4)n3)CC2=O)cc1` (centres undefined) it is 1100 s; for `Cc1ccsc1C(=O)Nc1ccc(N2CCN(c3ccccc3)C2=O)nc1` it is 893 s.

Consider `Cc1ccc(NC(=O)N2CCCC2c2cc(C)on2)c(Cl)c1` (centres undefined), for which the RP-LC retention time was determined as 897 s. The figure for `CCOc1cc(=O)n2c(c1C(=O)Nc1cccc3c1CCCC3)CCCC2` is 804 s; for `COc1cc2c(cc1CNC(=O)COc1ccc(Cl)cc1)OCCCO2` it is 982 s. The figure for `O=C(NC1CCCC1)c1ccc(Cn2nc(N3CCN(c4ccccc4)CC3)ccc2=O)o1` is 844 s. Compound `CCCC(=O)Nc1ccc(C(=O)Nc2nc(-c3ccccc3)cs2)cc1` returned an RP-LC retention time of 912 s. The same measure for `CCC(=O)N(C1CCOCC1)C1CCN(S(=O)(=O)c2ccc(CC)cc2)CC1`: 908 s. The figure for `CN1CCN(c2ncncc2N2CCC(C(=O)N3CCCCC3)CC2)CC1` is 557 s. The figure for `Cc1cc(S(=O)(=O)N2CCc3c(c(-c4nnc(-c5ccccc5)o4)nn3C)C2)ccc1F` is 703 s; for `O=C(Cc1ccc(Cl)cc1)Nc1nnc(C2CC(=O)N(c3ccc(F)cc3)C2)o1` (centres undefined) it is 772 s; for `COc1ccc(-c2nc(C3CC(=O)N(c4ccc(F)cc4)C3)no2)cc1OC` (centres undefined) it is 884 s. Compound `CCNC(=O)C1CCN(c2cc(SCC(=O)Nc3ccccc3OCC)ncn2)CC1` registered an RP-LC retention time of 760 s. `COc1ccc(-c2noc(Cn3cnc4c(oc5ccccc54)c3=O)n2)cc1OC` registered an RP-LC retention time of 846 s. The figure for `CN(C)[C@@H]1CN(Cc2cccc(C#N)c2)C[C@H]1CO` is 518 s; for `CCCCN1CCN(Cc2nc3nc(C)cc(N4CCCC4)n3n2)CC1` it is 574 s.

With `COc1ccc(Cl)cc1NC(=O)CSc1ccc(N2CCCC(C(=O)NC3CC3)C2)nn1` (centres undefined), the RP-LC retention time is 753 s. The figure for `O=C(c1cccn1-c1nnc(N2CCOCC2)s1)N1CCCCCC1` is 747 s; for `CCCn1c(=O)c(C)nc2cc(-c3noc(Cc4ccc(F)cc4)n3)ccc21` it is 1060 s. The same measure for `O=C(c1ccc([N+](=O)[O-])o1)N1CCN(Cc2nnnn2-c2ccc(F)cc2)CC1`: 755 s; for `Cc1ccc2c(c1Br)C(O)(CC(=O)c1ccc(F)cc1)C(=O)N2` (centres undefined): 802 s. `CCOc1ccc(OCC)c(NC(=O)C2=C(C)C(=O)OC23CCCCCC3)c1` came in with an RP-LC retention time of 1250 s. The same measure for `COc1ccccc1-c1cc(C(F)(F)F)n2ncc(C(=O)OCCN3CCCC3=O)c2n1`: 894 s; for `CCCNC(=O)C1CCN(c2nc3ccc(-c4cccs4)nc3s2)CC1`: 872 s; for `CC(C)CN(Cc1cccnc1)C1CN(C(=O)NCc2ccccc2)C1`: 627 s. Take `Cc1ccc(CN2CCN(C(=O)C3CCc4nc(N5CCOCC5)ncc4C3)CC2)cc1C` (centres undefined): the RP-LC retention time is 623 s.

For `O=C(CN(C(=O)c1ccc(F)c(Cl)c1)C1CCCCC1)N1CCNCC1`, the RP-LC retention time came to 659 s.

Turning to `Cc1ccc(CC(=O)Nc2ccc(-c3nc(Cn4nc(C)c(C)c4C)c(C)o3)cc2)cc1`, the RP-LC retention time amounted to 998 s. The same measure for `Cc1cc(C(=O)N(CC2CCCO2)c2nc3c(F)cc(F)cc3s2)on1` (centres undefined): 1080 s; for `COc1ccc(OC)c(S(=O)(=O)N2CCCC(C(=O)NC(C)C)C2)c1` (centres undefined): 714 s; for `O=C(c1nc(-c2cccc(F)c2)n2c1CCCCC2)N1CCN(c2ccccn2)CC1`: 645 s. The same measure for `Cc1nc(-c2csc(S(=O)(=O)N3CCCC(C(=O)Nc4ccc(C)c(Cl)c4)C3)c2)no1` (centres undefined): 940 s. The figure for `CCNc1nc(C)cc(N2CCN(S(=O)(=O)c3cc(C(C)C)ccc3C)CC2)n1` is 838 s; for `O=C(Nc1ccc2c(c1)OCO2)C(=O)c1cn(CC(=O)N2CCCCC2)c2ccccc12` it is 1000 s; for `Cc1cc(SCC(=O)N2CCCc3ccccc32)ncn1` it is 771 s.

In turn, `Cc1cc(N2CCCCC2)n2nc(CN3CCN(c4ccccc4F)CC3)nc2n1` came in with an RP-LC retention time of 673 s. The same measure for `O=C(c1cccn1Cc1noc(-c2ccc(Cl)cc2)n1)N1CCCC1`: 1020 s; for `COc1ccc(N2C=C(C(=O)N3CCOCC3)S(=O)(=O)c3ccc(F)cc32)cc1Cl`: 762 s. `CC(=O)N1c2ccc(S(=O)(=O)N3CCCC3)cc2CC1C(=O)N1CCN(c2ccccn2)CC1` (centres undefined) came in with an RP-LC retention time of 609 s. The same measure for `CCc1ccc(N2CCC(C(=O)NCCc3c[nH]c4ccc(C)cc34)C2=O)cc1` (centres undefined): 1010 s; for `CCCN1CCN(CCCNC(=O)c2c(-c3ccc(Br)s3)noc2C)CC1`: 609 s. The figure for `O=C(C1CCC1)N1CCC2(CC1)NCCc1c2[nH]c2ccccc12` is 628 s; for `CSc1ncccc1-c1nc(-c2ccc3c(c2)ncn3CCN2CCCCC2)no1` it is 649 s; for `O=C(N[C@@H]1CN(c2ncccn2)C[C@H]1CO)c1nccc2ccccc12` it is 613 s. The same measure for `Cc1nnc(N2CCCC(C(=O)NCc3cccnc3)C2)c2nn(-c3ccccc3)c(C)c12` (centres undefined): 579 s.

Regarding `COc1ccc(N2CCN(c3cc(SCC(=O)Nc4c(C)cc(C)cc4C)ncn3)CC2)cc1`, the RP-LC retention time turned out to be 983 s. `Cc1cc(C)cc(C(=O)N2CCCC2COc2ccc(C(=O)NC(C)C)cc2)c1` (centres undefined) gave an RP-LC retention time of 922 s. The same measure for `CCn1c(CNC(=O)C2CCC2)nc2c1CN(S(=O)(=O)c1ccc(Cl)cc1)CC2`: 692 s; for `Fc1ccc(-c2cc(CN3CCCC3)[nH]n2)cc1`: 594 s; for `Cc1ccc(S(=O)(=O)N2CCC(CN3CCCC(C)C3)CC2)cc1Cl` (centres undefined): 683 s. The figure for `CCCn1cc(C2=CCN(S(=O)(=O)c3ccc(NC(C)=O)cc3)CC2)c2cccnc21` is 865 s; for `CC(C)NC(=O)N(C1CC1)C1CCOC2(CCN(C(=O)C3CCCC3)CC2)C1` (centres undefined) it is 814 s; for `COc1cc(CCC(=O)N2C[C@@H](C(N)=O)[C@H](c3nc(C)no3)C2)on1` it is 600 s. The figure for `Cn1cc(-c2ccccc2)cc1C(=O)NCc1ccc(N2CCOCC2)cc1` is 892 s. `O=C(Nc1ccc(F)cc1)N1CCc2nc(-c3ccc(F)cc3)ncc2C1` displayed an RP-LC retention time of 926 s.

`CCOC(=O)c1ccc(NC(=O)C2CCCN(S(=O)(=O)c3ccc(OC)c(Cl)c3)C2)cc1` (centres undefined) registered an RP-LC retention time of 1060 s. The same measure for `Cc1noc(C)c1CC(=O)NCC1Cn2cccc2C(=O)N1CC(C)C` (centres undefined): 664 s.

Take `CCOC(=O)c1c(NC(=O)CSc2nnc(-c3cccnc3)o2)sc2c1CCC2`: the RP-LC retention time was 932 s. The figure for `O=C(c1cn2c(n1)CSCC2)N1CCC(Cc2ccccc2)CC1` is 720 s; for `CCOc1ccc(NC(=O)C2(CC)CCCCC(=O)N2)cc1` (centres undefined) it is 720 s; for `O=C(Cn1cnc2c(-c3ccc(Cl)cc3)csc2c1=O)N1CCCC1` it is 838 s. The same measure for `COc1ccc(OC)c(NC(=O)C2c3cc(OC)c(OC)cc3C(=O)N(C)C2c2cccnc2)c1` (centres undefined): 605 s; for `Cc1ccc(C(=O)N2CCN(c3nc4ccccc4n(CC(C)C)c3=O)CC2)s1`: 1140 s; for `O=C(NCCCN1CCCC1)c1ccc2ccnc(N3CCN(c4ccc(Cl)cc4)CC3)c2c1`: 639 s. In turn, `COc1ccc(-c2c(C)noc2NC(C)=O)cc1S(=O)(=O)Nc1ccc(F)c(F)c1` showed an RP-LC retention time of 748 s. The figure for `COCCN1CCn2cc(S(=O)(=O)Nc3ccc(F)c(F)c3)cc2C1=O` is 733 s; for `CCN(CC)CCNC(=O)c1c(-c2ccccc2)c(-c2ccccc2)nn(CC)c1=O` it is 666 s. The same measure for `O=C(CN1CCN(c2ncccn2)CC1)N1c2ccccc2Sc2ccccc21`: 602 s; for `COCCn1ncc(N2CCC(NC(=O)C(C)(C)C)CC2)cc1=O`: 607 s; for `O=C(Nc1cccc(C(F)(F)F)c1)N1CCCC(Cn2cnc3cccnc32)C1` (centres undefined): 751 s.
